# Results from US9623023B2, “Class of non-stimulant treatment and ADHD and related disorders” (The Florida State University Research Foundation, …, priority 2012, dated 2017).
# “Also recorded” adds a separate entry of the source.
# Columns and labels:
# [1] = tested on: PNE mice; test: Locomotor activity (hyperactivity) in prenatal nicotine exposure (PNE) mouse model; type: in vivo; conditions: oral
# [2] = tested on: hyperactivity in children; conditions: oral, dose range 0.5-2 mg/kg; previous reports; cited from earlier work
# [3] = long-term usage; Recant 1980; cited from earlier work
# [4] = tested on: PNE mice; conditions: active phase (lights off), Zhu 2012; cited from earlier work
# [5] = tested on: PFC dopamine turnover; conditions: PNE mice; MPH administration; Zhu 2012; cited from earlier work
# [6] = tested on: SHR rats; test: Locomotor activity (hyperactivity) in spontaneously hypertensive rat (SHR) ADHD model; type: in vivo
# Procedure: (§1) Spontaneously hypertensive rat (SHR) as an ADHD model. The SHR is a spontaneously occurring mutation associated with hypertension. […] Thus, both the SHR and the PNE mouse model show hyperactivity and increased frontal cortical KOPR activity. The selective KOPR antagonist, nor-BNI (10 mg/kg, i.p.) or the saline vehicle were administered to 60-day old SHR and WKY control rats (Sagvolden et al., 2009 (Reference 56)) at 17:00 hr and locomotor activity measured at hourly intervals over the next 19 hr (FIGS. 4 and 5). […] Since the hyperactivity in the SHR rat was evident during the lights off period from 19:00 hr to 7:00 hr, activity was compared during the lights off period between SHR rats receiving nor-BNI and those receiving saline.
# The long-lasting effects of nor-BNI in the SHR is consistent with previous reports that the desensitization of the KOPR produced by nor-BNI lasts for up to 21 days (Metcalf and Coop, 2005 (Reference 43); Patkar et al., 2013 (Reference 48)).
# [7] = tested on: WKY control rats; test: Locomotor activity in WKY control rats; type: in vivo, rat; conditions: 10 mg/kg i.p.
# Procedure: as §1
# [8] = tested on: KOPR; conditions: previous reports (Metcalf and Coop 2005; Patkar 2013); cited from earlier work
smiles,measurement,setting,value
O=C1CC[C@@]2(O)[C@H]3Cc4ccc(O)c5c4[C@@]2(CCN3CC2CC2)[C@H]1O5 [naltrexone],locomotor activity compared to vehicle,"[1]; P60 male PNE mice, naltrexone 1 mg/kg, at 19:00 hrs, FIG. 2 graph 202",significantly reduces locomotor activity; also recorded: reduces hyperactivity in PNE mice in a manner comparable to that of methylphenidate
same,hyperactivity in children,[2],effective in reducing hyperactivity
same,weight gain,[3],reduced weight gain
"COC(=O)C(c1ccccc1)C1CCCCN1 (stereo not drawn) [MPH, methylphenidate]",locomotor activity,"[1]; PNE mice, MPH 0.75 mg/kg, FIG. 2 graph 204",significantly decreased locomotor activity
same,locomotor activity after single oral administration,[4],reduces the activity to the levels seen in drug naïve control mice
same,PFC dopamine turnover,[5],increases PFC dopamine turnover
"Oc1ccc2c3c1O[C@H]1c4[nH]c5c(c4C[C@@]4(O)[C@@H](C2)N(CC2CC2)CC[C@]314)C[C@@]1(O)[C@H]2Cc3ccc(O)c4c3[C@@]1(CCN2CC1CC1)[C@H]5O4 [nor-BNI, nor-binaltorphimine]",locomotor activity during lights off period (Mean±SEM beam breaks),"[6]; 60-day old SHR, 10 mg/kg i.p. at 17:00 hr, lights off 19:00-7:00 hr, saline=4830.75±609.2, p=0.04",2743.25±945.8 beam breaks
same,effect on locomotor activity compared to saline,"[6]; SHR, 10 mg/kg i.p., FIG. 4",reduced the locomotor activity
same,period over which decrease in hyperactivity was observed,"[6]; SHR, single i.p. injection 10 mg/kg",21 days
same,locomotor activity during lights off period (Mean±SEM beam breaks),"[7]; 60-day old WKY control rats, saline=2604.5±608.1, p>0.05",2494.75±831.6 beam breaks
same,effect on locomotor activity,"[7]; WKY control rats, FIG. 5",did not affect locomotor activity
same,duration of desensitization of the KOPR,[8],up to 21 days
